In patent US8754226B2, “Piperidinyl-substituted lactams as GPR119 modulators” (Array BioPharma Inc., priority 2010, dated 2014):

System: modified version of the GPR119 receptor (94% identity to human receptor)
Test: cAMP production assay (LANCE cAMP kit, TR-FRET) in HEK-293 cells
Type: cell-based
Settings: for cAMP production in HEK-293 cells: HEK-293 cells stably expressing modified GPR119, test compounds 0.2 nM to 10 μM, one-hour incubation at ambient temperature; for Fold over baseline: increase in cAMP relative to basal levels, agonist activity if 1.5-fold or greater
Procedure, shortened: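 Doxycycline-induced (1 μg/mL, overnight) HEK-293 cells expressing modified GPR119 were thawed, 2000 cells/well, and exposed to compounds (0.2 nM-10 μM final, 0.5% DMSO) for 1 h at ambient temperature in HBSS/HEPES/BSA. cAMP was measured by LANCE TR-FRET against a standard curve. Agonism was defined as ≥1.5-fold over basal.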

| Compound | cAMP production in HEK-293 cells [nmol] | Fold over baseline |
| --- | --- | --- |
| CS(=O)(=O)c1ccc(N[C@H]2CCN(C3CCN(c4cnc(Cl)cn4)CC3)C2=O)cn1 [Example 131, (S)-1-(1-(5-chloropyrazin-2-yl)piperidin-4-yl)-3-(6-(methylsulfonyl)pyridin-3-ylamino)pyrrolidin-2-one] | 24.8 | 3.8 |
| CS(=O)(=O)c1ccc(N[C@H]2CCCCN(C3CCN(c4cnc(Cl)cn4)CC3)C2=O)c(F)c1.Cl [Example 80, (S)-1-(1-(5-chloropyrazin-2-yl)piperidin-4-yl)-3-(2-fluoro-4-(methylsulfonyl)phenylamino)azepan-2-one hydrochloride] | 18.3 | 3.7 |
| CCCc1cnc(N2CCC(N3CCC[C@H](Nc4ccc(S(C)(=O)=O)cc4F)C3=O)CC2)nc1 [Example 42, (S)-3-(2-fluoro-4-(methylsulfonyl)phenylamino)-1′-(5-propylpyrimidin-2-yl)-[1,4′-bipiperidin]-2-one] | 5.7 | 2.1 |
| CCc1cnc(N2CCC(N3CC[C@H](Oc4cc(C)c(Br)cc4F)C3=O)CC2)nc1 [Example 97, (S)-3-(4-bromo-2-fluoro-5-methylphenoxy)-1-(1-(5-ethylpyrimidin-2-yl)piperidin-4-yl)pyrrolidin-2-one] | 15.3 | 2.2 |
| CS(=O)(=O)c1ccc(N[C@H]2CCCN(C3CCN(c4cnc(Cl)cn4)CC3)C2=O)c(F)c1 [Example 44, (S)-1′-(5-chloropyrazin-2-yl)-3-(2-fluoro-4-(methylsulfonyl)phenylamino)-[1,4′-bipiperidin]-2-one] | 20.4 | 4.1 |
| CS(=O)(=O)c1cc(F)c(N[C@H]2CCCN(C3CCN(c4cnc(Cl)cn4)CC3)C2=O)c(F)c1 [Example 65, (S)-1′-(5-chloropyrazin-2-yl)-3-(2,6-difluoro-4-(methylsulfonyl)phenylamino)-[1,4′-bipiperidin]-2-one] | 21.0 | 3.4 |
| CS(=O)(=O)c1cc(F)c(O[C@H]2CCN(C3CCN(c4ncc(C(F)(F)F)cc4F)CC3)C2=O)cc1F [Example 166, (S)-3-(2,5-difluoro-4-(methylsulfonyl)phenoxy)-1-(1-(3-fluoro-5-(trifluoromethyl)pyridin-2-yl)piperidin-4-yl)pyrrolidin-2-one] | 15.3 | 3.6 |
| Cc1ccccc1-c1cnc(N2CCC(N3CC[C@H](Oc4cc(F)c(S(C)(=O)=O)cc4F)C3=O)CC2)nc1 [Example 93, (S)-3-(2,5-difluoro-4-(methylsulfonyl)phenoxy)-1-(1-(5-o-tolylpyrimidin-2-yl)piperidin-4-yl)pyrrolidin-2-one] | 11.1 | 2.2 |
| CS(=O)(=O)c1ccc(N[C@H]2CCN(C3CCN(c4cnc(Br)cn4)CC3)C2=O)c(F)c1 [Example 12, (S)-1-(1-(5-bromopyrazin-2-yl)piperidin-4-yl)-3-(2-fluoro-4-(methylsulfonyl)phenyl-amino)pyrrolidin-2-one] | 23.4 | 3.8 |
| CS(=O)(=O)c1cc(F)c(N[C@H]2CCN(C3CCN(c4ncc(Cl)cc4Cl)CC3)C2=O)cc1F [Example 113, (S)-1-(1-(3,5-dichloropyridin-2-yl)piperidin-4-yl)-3-(2,5-difluoro-4-(methylsulfonyl)phenyl-amino)pyrrolidin-2-one] | 29.1 | 2.1 |
| CS(=O)(=O)c1ccc(N[C@H]2CCN(C3CCN(c4ccc(C(F)(F)F)cn4)CC3)C2=O)c(F)c1 [Example 99, (S)-3-(2-fluoro-4-(methyl-sulfonyl)phenylamino)-1-(1-(5-(trifluoromethyl)pyridin-2-yl)piperidin-4-yl)pyrrolidin-2-one] | 12.4 | 3.5 |
| CS(=O)(=O)c1cc(F)c(N[C@H]2CCCN(C3CCN(c4ncc(I)cn4)CC3)C2=O)cc1F [Example 47, (S)-3-(2,5-difluoro-4-(methylsulfonyl)phen-ylamino)-1′-(5-iodopyrimidin-2-yl)-[1,4′-bipiperidin]-2-one] | 9.3 | 2.0 |
| CCS(=O)(=O)c1ccc(N[C@H]2CCN(C3CCN(c4cnc(Cl)cn4)CC3)C2=O)c(F)c1 [Example 17, (S)-1-(1-(5-chloropyrazin-2-yl)piperidin-4-yl)-3-(4-(ethylsulfonyl)-2-fluorophenylamino)pyrrolidin-2-one] | 107.3 | 5.3 |
| CS(=O)(=O)c1ccc(N[C@H]2CCN(C3CCN(c4ncc(Cl)nc4Cl)CC3)C2=O)c(F)c1 [Example 147, (S)-1-(1-(3,5-dichloropyrazin-2-yl)piperidin-4-yl)-3-(2-fluoro-4-(methylsulfonyl)phenylamino)pyrrolidin-2-one] | 46.4 | 3.6 |
| CCc1cnc(N2CCC(N3CC[C@H](Nc4cc5c(cc4Cl)C(=O)CCO5)C3=O)CC2)nc1 [Example 36] | 17.4 | 3.2 |
| O=C1[C@@H](Oc2ccc(-n3cnnn3)cc2)CCN1C1CCN(c2ncc(C(F)(F)F)cc2Cl)CC1 [Example 137, (S)-3-(4-(1H-tetrazol-1-yl)phenoxy)-1-(1-(3-chloro-5-(trifluoro-methyl)pyridin-2-yl)piperidin-4-yl) pyrrolidin-2-one] | 31.7 | 6.5 |
| O=C(c1ccc(O[C@H]2CCN(C3CCN(c4ncc(Cl)cc4F)CC3)C2=O)c(F)c1)N1CC[C@H](O)C1 [Example 153, (S)-1-(1-(5-chloro-3-fluoropyridin-2-yl)piperidin-4-yl)-3-(2-fluoro-4-((S)-3-hydroxypyrrolidine-1-carbonyl)phenoxy)pyrrolidin-2-one] | 14.3 | 3.1 |
| CS(=O)(=O)c1cc(F)c(N[C@H]2CCN(C3CCN(c4cnc(C#N)cn4)CC3)C2=O)cc1F [Example 16, (S)-5-(4-(3-(2,5-difluoro-4-(methylsulfonyl)phenylamino)-2-oxopyrrolidin-1-yl)piperidin-1-yl)pyrazine-2-carbonitrile] | 21.4 | 4.0 |
| CS(=O)(=O)c1ccc(O[C@H]2CCN(C3CCN(c4cnc(Cl)cn4)CC3)C2=O)cn1 [Example 69, (S)-1-(1-(5-chloropyrazin-2-yl)piperidin-4-yl)-3-(6-(methylsulfonyl)pyridin-3-yloxy)pyrrolidin-2-one] | 21.3 | 3.2 |
| CCc1cnc(N2CCC(N3CCC(Oc4ccc(-c5nnn(C)n5)cc4)C3=O)CC2)nc1 (stereo not drawn) [Example 68, 1-(1-(5-ethylpyrimidin-2-yl)piperidin-4-yl)-3-(4-(2-methyl-2H-tetrazol-5-yl)phenoxy)pyrrolidin-2-one] | 8.8 | 1.9 |
| O=C1[C@@H](Nc2ccc(S(=O)(=O)C3CC3)nc2)CCN1C1CCN(c2cnc(Cl)cn2)CC1 [Example 124, (S)-1-(1-(5-chloropyrazin-2-yl)piperidin-4-yl)-3-(6-(cyclopropylsulfonyl)pyri-din-3-ylamino)pyrrolidin-2-one] | 14.1 | 3.6 |
